PMC6269559, “Design, Synthesis and Biological Evaluation of Ketoprofen Conjugated To RGD/NGR for Targeted Cancer Therapy” (Iranian Journal of Pharmaceutical Research : IJPR, 2018)

Legend:
Format in all cases: cell-based
[1] = test system: MCF-7; experiment: MTT cytotoxicity, MCF-7; settings: 48 h; for Inhibitory % values, MCF-7: at 50 µM
Method: (§1) In order to evaluate the cytotoxic activity of the synthesis compounds, five cell lines: A2780 (low αVβ3), OVCAR-3 (high αVβ3), SKOV-3 (low CD13), HT-1080 (high CD13) and MCF-7 and fibroblast cell were selected. A2780 and MCF-7 are both cancer cells, but A2780 is […] cell line. Three concentrations of products were prepared and were evaluated after 48 h by using MTT method. Therefore cells cultured in culture media (RPMI1640) at 37 °C under 5% CO2 supplemented with 10% fetal bovine serum (FBS), 100 U/mL penicillin and 100 μg/mL streptomycin. Nearly 10^4 cells were seeded into 96-well plates and were grown for 24 h in incubator. Compounds and doxorubicin added to wells, cells were incubated at 37 °C for 48 h. Cells without any adding of compound were used as negative control, Doxorubicin was used as positive control and DMSO as the solvent of the test compounds. After 48 h, 10 μL of MTT (5 mg/mL in PBS) was added at 37 °C for 4 h. The medium with MTT was removed and 100 μL DMSO was added to each well, cover the plate from light, shake it for 5 min, then optical densities were read at 570 nm with a reference wavelength of 630 nm as background using a spectrophotometer plate reader (Infinite® M200, TECAN).

[2] = test system: OVCAR-3 (high αVβ3); experiment: MTT cytotoxicity, OVCAR-3; settings: 48 h; for Inhibitory % values, OVCAR3: 100 µM
Method: as §1

[3] = test system: A2780 (low αVβ3); experiment: MTT cytotoxicity, A2780; settings: 48 h; for Inhibitory % values, A2780: 100 µM
Method: as §1

[4] = test system: HT-1080 (high CD13); experiment: MTT cytotoxicity, HT-1080; settings: 48 h; for Inhibitory % values, HT-1080: 100 µM
Method: as §1

[5] = test system: SKOV-3 (low CD13); experiment: MTT cytotoxicity, SKOV-3; settings: 48 h; for Inhibitory % values, SKOV-3: 100 µM
Method: as §1

[6] = test system: Fibroblast; experiment: MTT cytotoxicity, fibroblast; settings: 100 µM, 48 h
Method: as §1

Compound	inhibition at 5 µM ([1]; Homo sapiens, MCF7, at 5 µM (positive control), read-out: Inhibitory % values, MCF-7)	inhibition at 5 µM ([2]; Homo sapiens, OVCAR-3, at 5 µM (positive control), read-out: Inhibitory % values, OVCAR3)	inhibition at 5 µM ([3]; Homo sapiens, A2780, at 5 µM (positive control), read-out: Inhibitory % values, A2780)	inhibition at 5 µM ([4]; Homo sapiens, HT-1080, at 5 µM (positive control), read-out: Inhibitory % values, HT-1080)	inhibition at 5 µM ([5]; Homo sapiens, SK-OV-3, at 5 µM (positive control), read-out: Inhibitory % values, SKOV-3)	Inhibitory % values, OVCAR3 [2]	Inhibitory % values, Fibroblast [6]	Inhibitory % values, A2780 [3]	inhibition at 100 µM ([4]; Homo sapiens, HT-1080, 100 µM, read-out: Inhibitory % values, HT-1080)	inhibition at 100 µM ([5]; Homo sapiens, SK-OV-3, 100 µM, read-out: Inhibitory % values, SKOV-3)	Inhibitory % values, MCF-7 [1]	Inhibitory % values, HT-1080 [4]	Inhibitory % values, SKOV-3 [5]
COc1cccc2c1C(=O)c1c(O)c3c(c(O)c1C2=O)C[C@@](O)(C(=O)CO)C[C@@H]3O[C@H]1C[C@H](N)[C@H](O)[C@H](C)O1 [Doxorubicin, reference compound]	38 ± 0.53%	45.2 ± 1.25%	65 ± 1.2%	26.7 ± 4.8%	29.5 ± 2.5%	–	–	–	–	–	–	–	–
CC(C(=O)O)c1cccc(C(=O)c2ccccc2)c1 (stereo not shown) [Ketoprofen]	–	–	–	–	–	No inhibition	No inhibition	No inhibition	9.25 ± 1.3%	14 ± 4.7%	–	–	–
Arginine-Glycine-Aspartic acid [RGD]	–	–	–	–	–	No inhibition	No inhibition	10 ± 2.2%	–	–	No inhibition	No inhibition	9.5 ± 0.5%
Asparagine-Glycine-Arginine [NGR]	–	–	–	–	–	No inhibition	No inhibition	6 ± 1.5%	–	–	No inhibition	6.5 ± 0.5%	No inhibition
